According to PubChem BioAssay (NCI):
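Where inhibition never reached the appropriate level, the endpoint shown equals the highest concentration tested. Otherwise, values were interpolated linearly from a five-concentration, 48-hour dose response in 96-well plates. At the GI50, growth is halved. TGI marks complete inhibition of growth.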

Legend:
Assay in all cases: growth of human tumour cells (NCI), 48 h
786-0 renal = system: 786-0 renal
EKVX NSCLC = system: EKVX NSCLC
HOP-62 NSCLC = system: HOP-62 NSCLC
HOP-92 NSCLC = system: HOP-92 NSCLC
HS 578T breast = system: HS 578T breast
HT29 colon = system: HT29 colon
MDA-MB-231 breast = system: MDA-MB-231 breast
SN12C renal = system: SN12C renal
TK-10 renal = system: TK-10 renal
U251 CNS = system: U251 CNS

Compound	TGI (786-0 renal) [µM]	TGI (EKVX NSCLC) [µM]	TGI (HOP-62 NSCLC) [µM]	TGI (HOP-92 NSCLC) [µM]	TGI (HS 578T breast) [µM]	TGI (HT29 colon) [µM]	TGI (MDA-MB-231 breast) [µM]	TGI (SN12C renal) [µM]	TGI (TK-10 renal) [µM]	TGI (U251 CNS) [µM]	GI50 (786-0 renal) [µM]	GI50 (EKVX NSCLC) [µM]	GI50 (HOP-62 NSCLC) [µM]	GI50 (HOP-92 NSCLC) [µM]	GI50 (HS 578T breast) [µM]	GI50 (HT29 colon) [µM]	GI50 (MDA-MB-231 breast) [µM]	GI50 (SN12C renal) [µM]	GI50 (TK-10 renal) [µM]	GI50 (U251 CNS) [µM]
Nc1nc(-c2cccc([N+](=O)[O-])c2)cc(-c2cc(-c3cccc([N+](=O)[O-])c3)nc(N)n2)n1	> 100	> 100	> 100	> 100	> 100	> 100	> 100	> 100	> 100	> 100	–	–	–	–	–	–	–	–	–	–
CC(=O)OC1Oc2ccccc2-c2oc(=O)c(-c3cc4ccccc4oc3=O)cc21 (stereo not drawn)	31.3	74.6	34.4	45.6	89.2	> 100	35	53.8	37.2	28.3	16.6	26.4	18.6	19.3	30	33	17.4	21.5	18.3	14.7
O=C(COc1cccc(/C=C2\CSc3ccccc3C2=O)c1)c1ccc(Cl)cc1	2.89	17.5	6.12	44.2	17.2	2.9	14.8	8.47	4.42	2.72	1.4	7.45	2.15	3.27	2.74	1.43	4.48	2.54	1.88	1.42
Nc1ncnc2c1cnn2Cc1ccc(Cl)cc1	> 100	–	> 100	> 92.5	> 100	> 100	> 100	> 100	> 100	> 100	> 100	–	> 100	–	–	–	–	–	–	–
C=C1C(=O)O[C@H]2[C@H]1CC/C(COC(=O)c1ccccc1)=C\CC[C@@]1(C)O[C@@H]21	3.08	4.46	14.1	2.61	14.8	2.1	4.36	3.26	3.98	3.37	1.46	1.85	2.96	0.984	2.56	0.412	1.69	1.39	2.03	1.67
Cc1cc(=O)oc2cc(OS(C)(=O)=O)ccc12	> 100	> 100	> 100	> 100	> 100	> 100	> 100	> 100	> 100	> 100	–	–	–	–	–	–	–	–	–	–
COc1ccc(-c2cc(=O)c3c(OC)c(OC)c(OC)c(OC)c3o2)c(OC)c1	> 100	> 100	70.6	55.3	49.4	68.5	> 100	62.6	> 100	> 100	–	–	–	–	–	–	–	–	–	–
C=CC1=C(C)C2=NC1=CC1=NC(=CC3=C(C)C4=C(O)C(C(=O)OC)C(=C5NC(=C2)C(C)C5CCC(=O)OC)C4=N3)C(CC)=C1C (stereo not drawn)	> 100	> 100	> 100	> 100	> 100	> 100	> 100	> 100	> 100	> 100	–	–	–	–	–	–	–	–	–	–
C/C(=N\N=C(N)N)C(CN(C)C)C(c1ccccc1)c1c(O)c2ccccc2oc1=O (stereo not drawn)	> 100	> 100	> 100	> 100	> 100	> 100	> 100	> 100	> 100	> 100	–	–	–	–	–	–	–	–	–	–
O=C(Nc1cccc(-n2cc(-c3ccncc3)c(-c3ccc(O)c(Cl)c3)n2)c1)Nc1cccc(C(F)(F)F)c1	9.2	–	8.36	4.14	7.08	13.7	16.9	> 100	9.3	4.8	2.15	–	2.75	1.07	1.51	3.75	2.24	2.86	3.29	1.4
CCSc1nnc(-c2ccc3ccccc3c2O)n1-c1ccc(Cl)cc1	> 100	–	> 100	> 100	> 100	> 100	> 100	> 100	–	> 100	60.3	–	22.1	9.23	85.4	16	> 100	> 100	–	4.05
O=C(O)C1CCCCC1c1c2ccc(=O)cc-2oc2cc(O)ccc12 (stereo not drawn)	> 100	> 100	–	41.1	96.7	> 100	> 100	> 100	> 100	96.9	–	–	–	–	–	–	–	–	–	–
Cn1c(=O)c(Oc2ccccc2)cc2cnc(NC3CCOCC3)nc21	> 25	–	> 25	> 25	> 25	> 25	> 25	> 25	> 25	> 25	> 25	–	> 25	> 25	> 25	> 25	> 25	> 25	> 25	> 25
O=C1CS/C(=N\S(=O)(=O)c2ccc(N3N=C4c5ccccc5CC4C3c3ccc(Cl)cc3)cc2)N1c1ccccc1 (stereo not drawn)	> 100	> 100	> 100	> 100	87.4	–	> 100	> 100	> 100	64.8	46.6	43.2	56.8	27	29.4	–	86	37.3	29.7	27.8
CNCCCNCCCN1C(=O)c2ccc3c4c(ccc(c24)C1=O)C(=O)N(CCCNCc1ccccc1OC)C3=O	4.56	–	4.44	8.05	28.5	1.95	14	3.41	14.1	7.67	1.27	–	1.24	2.13	3.02	0.381	2.9	1.46	2.58	1.61
